One data set concerns the target T1, MATE1 (Homo sapiens, UniProt Q96FL8).
T1 construct: expressed in transfected cells; gift of Dr. Kathy Giacomini, UCSF
T1 sequence (Q96FL8 1-570): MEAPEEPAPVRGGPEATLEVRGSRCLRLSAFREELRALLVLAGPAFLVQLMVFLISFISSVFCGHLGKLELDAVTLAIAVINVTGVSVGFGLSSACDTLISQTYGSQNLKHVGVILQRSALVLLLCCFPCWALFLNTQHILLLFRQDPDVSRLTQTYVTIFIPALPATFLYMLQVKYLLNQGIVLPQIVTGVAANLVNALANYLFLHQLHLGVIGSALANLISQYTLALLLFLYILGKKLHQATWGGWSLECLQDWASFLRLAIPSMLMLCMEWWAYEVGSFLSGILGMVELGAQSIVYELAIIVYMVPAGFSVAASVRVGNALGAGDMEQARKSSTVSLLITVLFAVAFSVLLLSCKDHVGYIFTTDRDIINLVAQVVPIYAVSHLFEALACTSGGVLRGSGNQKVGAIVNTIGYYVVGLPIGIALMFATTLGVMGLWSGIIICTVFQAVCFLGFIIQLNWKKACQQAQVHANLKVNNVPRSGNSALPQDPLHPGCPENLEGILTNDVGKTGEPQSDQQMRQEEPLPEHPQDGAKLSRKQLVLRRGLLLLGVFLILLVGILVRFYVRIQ
The experiment in a line: Inhibition of ASP+ uptake in HEK293 cells overexpressing MATE1. It counts as cell-based. Particulars: for IC50: HEK293-MATE1, ASP+ 10 μM, 1 min, 37 °C, Avg ± SE (n = 3). Here is the method: (§1) After washing once with prewarmed Hank’s Buffered Saline Solution (HBSS), cells were preincubated for 30 min at 37 °C with various 5-HT3 antagonists for OCT2 cells or in a 30 mM NH4Cl solution in HBSS at pH 6.5 for MATE1 cells for intracellular acidification. Uptake into OCT2 cells was initiated through exposure to 10 μM of fluorescent substrate ASP^+ directly in the incubation media. Uptake into MATE1 cells was initiated by application of HBSS at pH 7.4 containing 5-HT3 antagonists and 10 μM of fluorescent substrate ASP^+. […] Media was removed and washed four times with ice-cold HBSS. Cells were lysed with 1% Triton X-100. […] Intracellular fluorescence was normalized to total protein concentration of cell lysates from each well using the bicinchoninic acid (BCA) assay (Pierce Biotechnology, Rockford, IL, USA). Experiments were repeated three separate times, with three to four replicates in each experiment.
(§2) GraphPad Prism v6 (GraphPad Software, La Jolla, CA, USA) was used for statistical analysis.

The target in a further data set is T2, human OCT2 (Homo sapiens, UniProt O15244).
T2 construct: expressed in transfected cells; gift of Dr. Kathy Giacomini, UCSF
T2 sequence (O15244 1-555): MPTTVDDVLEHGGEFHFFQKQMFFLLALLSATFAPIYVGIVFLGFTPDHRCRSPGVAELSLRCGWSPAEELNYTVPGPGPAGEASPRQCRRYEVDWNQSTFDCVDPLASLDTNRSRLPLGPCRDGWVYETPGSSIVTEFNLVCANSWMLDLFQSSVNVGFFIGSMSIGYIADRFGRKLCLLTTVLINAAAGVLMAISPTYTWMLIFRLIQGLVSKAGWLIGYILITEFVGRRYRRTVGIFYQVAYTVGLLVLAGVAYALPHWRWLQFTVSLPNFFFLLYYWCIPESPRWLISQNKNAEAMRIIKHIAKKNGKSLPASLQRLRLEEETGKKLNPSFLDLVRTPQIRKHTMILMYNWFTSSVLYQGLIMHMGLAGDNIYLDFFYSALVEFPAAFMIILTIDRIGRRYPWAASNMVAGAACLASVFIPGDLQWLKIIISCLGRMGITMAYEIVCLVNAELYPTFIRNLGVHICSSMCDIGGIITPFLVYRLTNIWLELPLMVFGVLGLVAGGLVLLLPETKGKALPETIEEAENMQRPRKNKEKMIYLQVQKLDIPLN
The experiment in a line: Inhibition of ASP+ uptake in HEK293 cells overexpressing OCT2. Type of data set: cell-based. The following applies: for IC50: HEK293-OCT2, ASP+ 10 μM, 1 min, 37 °C, Avg ± SE (n = 3). On the procedure: as §1, §2

In the next data set the test system is OCT2 and MATE1. The experiment in a line: Inhibition of basolateral-to-apical transcellular transport of ASP+ in OCT2/MATE1 double-transfected MDCK cells (Transwell). The following applies: human. Here is the method:
(§3) Control and OCT2/MATE1-expressing MDCK cells were evaluated for protein expression of OCT2 and MATE1 using SDS-PAGE and western blotting with specific primary antibodies (OCT2, sc292622 1:500 and MATE1, sc133390 1:250, Santa Cruz Biotechnology, Santa Cruz, CA, USA), followed by an antirabbit HRP-conjugated secondary antibody (1:1000, Sigma Aldrich, St. Louis, MO, USA) and Super Signal Western Dura Extended Duration Substrate (Pierce Biotechnology, Rockford, IL, USA). Detection was performed with a FluorChem imager (ProteinSimple, Santa Clara, CA, USA). Both MDCK cell lines were seeded on 0.4 μm transwell inserts (VWR, Radnor, PA, USA) at a density of 2 × 10^5 cells/cm^2. Transport experiments were performed 3 to 5 days after seeding. The integrity of MDCK monolayers was verified by measuring transepithelial electrical resistance (TEER) >150 Ω*cm^2 using an epithelial voltohmmeter, EVOM^2 (World Precision Instruments, Sarasota, FL). Proper formation of tight junctions was also verified by measurement of passive permeability of lucifer yellow in the basolateral-to-apical (B-to-A) direction. Lucifer yellow (20 μM) was applied to the basolateral chamber for 1 h, and media were collected from the apical chamber.
(§4) After washing the cells once with Hank’s Buffered Saline Solution (HBSS) pH 7.4, transport studies were initiated after aspirating the wash buffer from both the apical and basal chambers. […] Cells were lysed with 1% Triton X-100. […] Intracellular fluorescence was normalized to total protein concentration of cell lysates from each transwell using the BCA assay. Experiments were performed in three individual Transwell inserts.

Data set [1] concerns empty vector (EV) HEK293 cells. The experiment in a line: ASP+ uptake in empty vector (EV) HEK293 cells in presence of inhibitors. Type of data set: cell-based, human. Particulars: ASP+ 10 μM. The text has this:
Media was removed and washed four times with ice-cold HBSS. Cells were lysed with 1% Triton X-100. […] Experiments were repeated three separate times, with three to four replicates in each experiment.

In data set [2] the test system is human OCT2 and MATE1. Put plainly: Intracellular accumulation of ASP+ in OCT2/MATE1 double-transfected MDCK cells. Type of data set: cell-based. Particulars: 120 min; for increase in intracellular ASP+ accumulation: inhibitor 20 μM (highest concentration); for effect on intracellular ASP+ accumulation: inhibitor 0.5–20 μM, ASP+ 25 μM. Here is the method:
Cells were incubated with 5-HT3 antagonists in the apical chamber in HBSS pH 6.0 and 5-HT3 antagonists with ASP^+ (25 μM) in the basolateral chamber in HBSS pH 7.4 and incubated at 37 °C for 120 min. To measure time-dependent transcellular transport, an aliquot of the incubation medium (100 μL) from the apical chamber (receiving chamber) was collected at 40, 60, 90, and 120 min and replaced with an equal volume of fresh buffer containing 5-HT3 antagonist or the positive control chemical at the original concentration. […] Cells were lysed with 1% Triton X-100. […] Experiments were performed in three individual Transwell inserts.

The conditions of data set [3]: no reference given, cited from earlier work; for metabolized by cytochrome P450 enzymes in the liver: range for the named drugs together.
Data set [4] relates to human OCT2 and MATE1. Put plainly: Inhibition of basolateral-to-apical transcellular transport of ASP+ in OCT2/MATE1 double-transfected MDCK cells (Transwell). Particulars: for effect on B-to-A transport of ASP+: inhibitor 0.5–20 μM, 40–120 min, ASP+ 25 μM; for effect on transcellular transport of ASP+: inhibitor 10 and 20 μM. On the procedure:
as §3, §4

The mark [5] stands for this setting: probe ASP+ (25 μM, basolateral chamber).

“Also recorded” adds a separate entry of the source. Like-named read-outs stand apart in the source and are kept apart here.

The term inhibition denotes the relative decrease from the control value, in per cent. For orientation: IC50 means the concentration that gives 50% inhibition. What is called half-life is the time needed for the level to fall by half in the phase considered.

`CCN(CC)CCNC(=O)c1cc(Cl)c(N)cc1OC` [metoclopramide]: the “inhibition of MATE1 activity” value on MATE1 is “None of these drugs inhibited MATE1 activity”. Besides, the “effect on ASP+ uptake in OCT2-expressing HEK293 cells” value at human OCT2 is “inhibited OCT2 activity across a range of concentrations”.
As for `CN/C(=N/CCSCc1nc[nH]c1C)NC#N` [Cimetidine], in the data set on OCT2 and MATE1 (setting [5]), the inhibition at 120 min, 5 μM came out at 18% and the inhibition at 120 min, 50 μM was 40%. This compound also registered an IC50 against human OCT2 of 24.5 ± 4 µM. For the same compound, the “effect on ASP+ uptake in EV cells” value in data set [1] is given as “had no influence on ASP^+ uptake”. For the same compound, the “increase in intracellular accumulation of ASP+” value in the data set on human OCT2 and MATE1 [2] (cimetidine concentration not stated in the sentence (5 and 50 μM tested)) is recorded as 1.8 fold.
Compound `CCc1nc(N)nc(N)c1-c1ccc(Cl)cc1` [pyrimethamine] returned an inhibition at 120 min, 1 μM in the data set on OCT2 and MATE1 of 36%. In addition, the “increase in intracellular accumulation of ASP+” value with human OCT2 and MATE1 [2] (inhibitor 1 μM) is 1.3 fold.
`CN1[C@@H]2CC[C@H]1C[C@@H](OC(=O)c1c[nH]c3ccccc13)C2` [Tropisetron]: in data set [3], the half-life is on record as less than 6 h and the “metabolized by cytochrome P450 enzymes in the liver” value (“metabolized” below) is listed as 48–95%. For the same compound, in the data set on human OCT2 and MATE1 [4], the “effect on B-to-A transport of ASP+” value was “concentration-dependent inhibition of ASP^+ secretion, which was significant at 10 and 20 μM for all time-points”; the “effect on transcellular transport of ASP+” value is “similarly reduced the transcellular transport of ASP^+”. The compound also yielded an IC50 on MATE1 of 1.6 ± 0.9 µM. The compound also registered an IC50 on human OCT2 of 31.3 ± 6.6 µM. In addition, the “effect on ASP+ uptake in EV cells” value in data set [1] is listed as “stimulated additional ASP^+ uptake”. In addition, in the data set with human OCT2 and MATE1 [2], the “increase in intracellular ASP+ accumulation” value was determined as 1.5 fold.
Turning to `C[C@@H](O[C@H]1OCCN(Cc2n[nH]c(=O)[nH]2)[C@H]1c1ccc(F)cc1)c1cc(C(F)(F)F)cc(C(F)(F)F)c1` [aprepitant], at MATE1 (ASP+ 10 μM), the “effect on ASP+ uptake in MATE1-expressing HEK293 cells” value was “had no impact on ASP^+ uptake”. For the same compound, at human OCT2 (ASP+ 10 μM), the “effect on ASP+ uptake in OCT2-expressing HEK293 cells” value is on record as “had no impact on ASP^+ uptake”.
As to `O=C1c2cccc3c2[C@H](CCC3)CN1[C@@H]1CN2CCC1CC2` [Palonosetron], in data set [3], the half-life is 40 h and the “metabolized” value is on record as 48–95%. Moreover, in the data set on human OCT2 and MATE1 [4], the “effect on B-to-A transport of ASP+” value is “concentration-dependent inhibition of ASP^+ secretion, which was significant at 10 and 20 μM for all time-points”; the “effect on transcellular transport of ASP+” value is “similarly reduced the transcellular transport of ASP^+”. Moreover, the IC50 at MATE1 turned out to be 1.6 ± 0.6 µM. For the same compound, inhibition on human OCT2 was half-maximal at 2.2 ± 0.3 µM (IC50). The “effect on ASP+ uptake in EV cells” value in data set [1] is recorded as “stimulated additional ASP^+ uptake”. Further, the “effect on intracellular ASP+ accumulation” value in the data set on human OCT2 and MATE1 [2] was “No significant changes in ASP^+ accumulation”.
In the case of `O=C(O[C@@H]1C[C@@H]2C[C@H]3C[C@H](C1)N2CC3=O)c1c[nH]c2ccccc12` [Dolasetron], the half-life in data set [3] is 8 to 9 h. For the same compound, in the data set with human OCT2 and MATE1 [4], the “effect on B-to-A transport of ASP+” value is “at 10 and 20 μM inhibited ASP^+ transport at 120 min only”; the “effect on transcellular transport of ASP+” value is on record as “similarly reduced the transcellular transport of ASP^+”. For the same compound, the concentration for half-maximal inhibition (IC50) against MATE1 worked out at 27.4 ± 2.8 µM. Further, the IC50 against human OCT2 is 85.4 ± 3.4 µM. Also, in the data set with human OCT2 and MATE1 [2], the “effect on intracellular ASP+ accumulation” value is recorded as “No significant changes in ASP^+ accumulation”.
As for `CN1C2CCCC1CC(NC(=O)c1nn(C)c3ccccc13)C2` (stereo not drawn) [Granisetron], in data set [3], the half-life is 8 to 9 h and the “metabolized” value is reported as 48–95%. Moreover, the “effect on B-to-A transport of ASP+” value in the data set with human OCT2 and MATE1 [4] is “did not alter the B-to-A transport of ASP^+ at any concentration tested; also recorded: did not exhibit any significant inhibition”. Moreover, the concentration for half-maximal inhibition (IC50) at MATE1 was 5 ± 1.1 µM. The same compound came in with an IC50 on human OCT2 of 3.8 ± 1.6 µM. Moreover, the “effect on ASP+ uptake in EV cells” value in data set [1] is given as “caused a small decrease in ASP^+ accumulation”. In addition, in the data set with human OCT2 and MATE1 [2], the “increase in intracellular ASP+ accumulation” value came to 1.3 fold.
For the compound `CN1CCN(CCCN2c3ccccc3Sc3ccc(Cl)cc32)CC1` [prochlorperazine], on MATE1 (inhibitor 10 μM, HEK293-MATE1 (data not shown)), the “inhibition of MATE1 activity” value is listed as “None of these drugs inhibited MATE1 activity”. Also, at human OCT2 (ASP+ 10 μM), the “effect on ASP+ uptake in OCT2-expressing HEK293 cells” value is “inhibited OCT2 activity across a range of concentrations”.

Values taken from publication PMC8234231, “In Vitro Inhibition of Renal OCT2 and MATE1 Secretion by Antiemetic Drugs” (International Journal of Molecular Sciences, 2021).
